Laboratory results from article PMC12160547, “Identification of a Novel Small Molecule STING Agonist Reshaping the Immunomicroenvironment of Pancreatic Ductal Adenocarcinoma” (International Journal of Biological Sciences, 2025).

Experiments:
[1] = Pharmacokinetic parameters, i.v. and p.o.; format: in vivo; conditions: plasma
[2] = Metabolite profiling in liver microsomes, 60 min incubation; format: in vitro ADME, rat; conditions: D166 incubated 60 min; selected ion chromatographic peak areas
h-STING = biological target: T1, h-STING (Homo sapiens, UniProt Q86WV6, G230A/R293Q/R71H); test: THP1-Dual reporter activation fold; format: cell-based
T1 construct: THP1-Dual Fold (10 μM); endogenous in cells; host or cells: THP1-Dual
T1 sequence (Q86WV6 whole entry R71H/G230A/R293Q): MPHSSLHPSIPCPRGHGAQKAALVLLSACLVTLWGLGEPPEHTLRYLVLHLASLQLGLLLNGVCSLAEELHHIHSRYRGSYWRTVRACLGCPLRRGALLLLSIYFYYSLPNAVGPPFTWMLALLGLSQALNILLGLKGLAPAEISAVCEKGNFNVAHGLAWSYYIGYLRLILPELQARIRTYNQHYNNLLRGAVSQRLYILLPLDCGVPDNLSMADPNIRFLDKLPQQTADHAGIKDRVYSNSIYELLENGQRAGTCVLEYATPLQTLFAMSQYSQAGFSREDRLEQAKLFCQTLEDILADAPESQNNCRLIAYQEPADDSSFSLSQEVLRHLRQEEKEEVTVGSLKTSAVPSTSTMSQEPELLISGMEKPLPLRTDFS

[3] = system: subcutaneous pancreatic tumor; test: CD45.1 T cell or BMDM transfer into CD45.2 tumor-bearing mice; format: in vivo
STING signaling = test: Relative gene expression in RAW-Lucia cells (RT-qPCR); format: cell-based, mouse
Procedure: RNA from tumor tissues or cells was extracted using the SteadyPure Universal RNA Extraction Kit (Accurate Biology) and reverse transcribed into cDNA with the Evo M-MLV Reverse Transcription Kit (Accurate Biology). Relative RNA expression levels were quantified using 2X Universal SYBR Green Fast qPCR Mix (Abclonal), and the results were recorded on the qTOWER®3 84 Real-Time PCR system.

[4] = Metabolite profiling in liver microsomes, 60 min incubation; format: in vitro ADME, mouse; conditions: D166 incubated 60 min; selected ion chromatographic peak areas
[5] = system: pancreatic tumor organoids; test: Pancreatic tumor organoid viability (AO/PI staining, CellTiter-Glo 3D); format: cell-based, human
Text: Pancreatic tumor organoids were derived from patients diagnosed with pancreatic ductal adenocarcinoma at Ruijin Hospital, affiliated with Shanghai Jiao Tong University School of Medicine. Inclusion criteria required a confirmed histopathological diagnosis of pancreatic ductal adenocarcinoma and the absence of prior neoadjuvant treatment. After obtaining informed consent from the patients, tumor tissues were excised during surgery and preserved in a tissue preservation solution (Absin). The tumor samples were promptly minced into small fragments in pre-chilled RPMI-1640 and digested for 20 minutes at 37°C using the Human Tumor Dissociation Kit (Miltenyi Biotec). The resulting single-cell suspension was filtered through a 100-µm mesh (Falcon) and seeded onto Matrigel (Corning). Following a 30-minute incubation at 37°C, OM12 (Omabio) complete organoid medium was added around the periphery of the Matrigel. The tissue-derived cells successfully grew in a three-dimensional format. The viability of the organoids was assessed using CellTiter-Glo® 3D Cell Viability Assay (Promega) reagents. […] Luminescence was subsequently measured using the BioTek Synergy LX multimode reader (Agilent). […] Acridine orange (AO) binds to the nuclei of all cells, emitting green fluorescence, while propidium iodide (PI) penetrates the cell membrane to stain dead cells red. […]

[6] = Metabolite profiling in liver microsomes, 60 min incubation; format: in vitro ADME, dog; conditions: D166 incubated 60 min; selected ion chromatographic peak areas
[7] = as above; format: in vitro ADME, human; conditions: D166 incubated 60 min; selected ion chromatographic peak areas
[8] = system: pancreatic orthotopic tumor; test: Pancreatic orthotopic tumor model; format: in vivo, C57BL/6 mice
Procedure: For the pancreatic orthotopic tumor model, mice were anesthetized using […] (2,2,2-tribromoethanol) (Aladdin), and the pancreas was surgically exposed. Approximately 5 × 10^5 tumor cells suspended in 50 μL PBS were injected into the pancreas. The incision was then closed, and the mice were allowed to recover under close observation. On days 9, 12, and 15, the mice received intraperitoneal injections of three different concentrations of the drug. As with the subcutaneous model, the mice were euthanized on day 25, tumors were collected, weighed, and further analyzed. Additionally, at least 10 mice from each group were randomly selected to undergo the same treatments without euthanasia, and their survival times were recorded to generate survival curves.
Pancreatic orthotopic tumor models were established using mouse pancreatic tumor cell lines (Pan02-luc and KPC-luc). Mice were intraperitoneally injected with 200 µL of D-Luciferin working solution (15 mg/mL) (Yeasen) and continuously anesthetized with isoflurane. Ten minutes after injection, the intensity and distribution of luciferase luminescence were measured using the Tanon ABL-X5 in vivo imaging system. Tumor size was monitored weekly, with consistent exposure times and intensities for imaging.
Multiplex cytokine detection was performed using Luminex cytokine bead array technology provided by WayenBio, Shanghai. In the mouse tumor model, levels of multiple cytokines were simultaneously measured and normalized to tumor weight. For the quantification of specific cytokines, such as IL-6 and IFN-β, enzyme-linked immunosorbent assay (ELISA) kits from Abclonal were used. The assays were conducted according to the manufacturer's instructions.

[9] = system: orthotopic PDAC microenvironment; test: Flow cytometry and scRNA-seq of orthotopic PDAC microenvironment; format: in vivo, mice
Procedure: Bulk RNA sequencing was performed by GenePlus (China) on pancreatic cancer organoids treated with 10 μM of […] or MSA-2, compared to a control group, with three biological replicates. The sequencing data are available for access and analysis via the provided website. Single-cell RNA sequencing (scRNA-seq) was conducted by NovelBio (China) on in situ mouse pancreatic tumors following tissue digestion. The resulting sequencing data were analyzed using R software. Mouse tumors were digested using the Mouse Tumor Dissociation Kit (Miltenyi Biotec) according to the manufacturer's protocol. The resulting single-cell suspension was filtered through a 70-micron mesh to ensure a homogeneous cell population. Cells were stained with fluorescently labeled antibodies for flow cytometry at 4°C on ice for 30 minutes. After washing off unbound antibodies, fluorescence was detected using a Beckman CytoFlex S flow cytometer. For co-cultured immune cells, separated T cells and macrophages were similarly stained with flow cytometry antibodies. For cytokine staining, cells were pre-stimulated with the eBioscienceTM Cell Stimulation Cocktail for 4 hours. For intracellular protein staining, after surface staining, cells were fixed and permeabilized using the BD Cytofix/CytopermTM Fixation/Permeabilization Kit, followed by staining for intracellular proteins. Flow cytometry data were analyzed using FlowJo 10 software.

[10] = CD45.1 bone marrow-derived macrophages transferred
[11] = flow cytometry of tumor suspensions

SMILES: [2H]C([2H])([2H])Oc1cc2cc(C(=O)CCC(=O)O)sc2cc1OC([2H])([2H])[2H] [D166]
- AUC(0-inf) ([1]; iv, average of three runs): 750 ng·h/mL
- MRT inf ([1]; iv, average of three runs): 15.6 min
- clearance ([1]; iv, average of three runs): 22.5 mL/min/kg
- half-life ([1]; iv, average of three runs): 45 min
- Vd ([1]; iv, average of three runs, read-out: Vz): 1.45 L/kg
- AUC(0-inf) ([1]; po, average of three runs): 2120 ng·h/mL
- MRT inf ([1]; po, average of three runs): 66 min
- half-life ([1]; po, average of three runs): 81 min
- bioavailability ([1]; p.o., oral bioavailability): 93.8%
- Relative Peak Area Abundance (%) RLM [2]: 97.7%
- THP1-Dual Fold (10 μM) (h-STING): 60.46 Fold
- tumor progression ([3]; CD45.1 T cells transferred, D166 concentration increased): slowed
- expression of M1 macrophage markers (CD86 and iNOS) in CD45.1 macrophages [3, 10]: increased
- expression of M2 markers in CD45.1 macrophages [3, 10]: decreased
- IFNG, GZMB, and PDCD1 in the CD45.1 T cells ([3]; sorted CD45.1 cells): significant upregulation
- Relative expression (Cxcl10/actin) (STING signaling): 158.00 ± 2.91
- Relative Peak Area Abundance (%) MLM [4]: 94.2%
- viability of pancreatic tumor organoids ([5]; increased concentration of D166): decreased viability
- inhibiting organoid viability compared with ADU-S100, MSA-2, SR-717, MK-1454 and DXMAA ([5]; organoids, 10μM): better efficacy
- Relative Peak Area Abundance (%) DLM [6]: 98.6%
- Relative Peak Area Abundance (%) HLM [7]: 98.5%
- cytokine levels in the TME, including IL-6, IFN-β, and TNF-α ([8]; higher D166 doses, ELISA): elevated cytokine levels
- inhibition of tumor proliferation, weekly in vivo imaging ([8]; increasing D166 concentrations, compared with DMXAA): more potent effect than DMXAA
- pancreatic tumor progression ([8]; intraperitoneal injection at varying doses): significant dose-dependent inhibition
- proportion of ductal cells (including cancer cells) and fibroblasts ([9]; 10 mg/kg D166, 10X single-cell sequencing): significant reduction
- F4/80-positive macrophages among the myeloid cells [9, 11]: significant increase
- proportion of CD4+ and CD8+ T cells [9, 11]: significantly increased
